Experimental data as given in paper PMC6526530 (Biological & pharmaceutical bulletin, 2009).

Experiments:
[1] = molecular target: T1, P-glycoprotein (ABCB1/MDR1) (Homo sapiens, UniProt P08183); assay: transepithelial transport in L-MDR1 vs LLC-PK1 monolayers; format: cell-based
[2] = molecular target: T1, P-glycoprotein (ABCB1/MDR1); assay: inhibition of transepithelial DRV transport in L-MDR1 monolayers; format: cell-based

T1 sequence (P08183 whole entry): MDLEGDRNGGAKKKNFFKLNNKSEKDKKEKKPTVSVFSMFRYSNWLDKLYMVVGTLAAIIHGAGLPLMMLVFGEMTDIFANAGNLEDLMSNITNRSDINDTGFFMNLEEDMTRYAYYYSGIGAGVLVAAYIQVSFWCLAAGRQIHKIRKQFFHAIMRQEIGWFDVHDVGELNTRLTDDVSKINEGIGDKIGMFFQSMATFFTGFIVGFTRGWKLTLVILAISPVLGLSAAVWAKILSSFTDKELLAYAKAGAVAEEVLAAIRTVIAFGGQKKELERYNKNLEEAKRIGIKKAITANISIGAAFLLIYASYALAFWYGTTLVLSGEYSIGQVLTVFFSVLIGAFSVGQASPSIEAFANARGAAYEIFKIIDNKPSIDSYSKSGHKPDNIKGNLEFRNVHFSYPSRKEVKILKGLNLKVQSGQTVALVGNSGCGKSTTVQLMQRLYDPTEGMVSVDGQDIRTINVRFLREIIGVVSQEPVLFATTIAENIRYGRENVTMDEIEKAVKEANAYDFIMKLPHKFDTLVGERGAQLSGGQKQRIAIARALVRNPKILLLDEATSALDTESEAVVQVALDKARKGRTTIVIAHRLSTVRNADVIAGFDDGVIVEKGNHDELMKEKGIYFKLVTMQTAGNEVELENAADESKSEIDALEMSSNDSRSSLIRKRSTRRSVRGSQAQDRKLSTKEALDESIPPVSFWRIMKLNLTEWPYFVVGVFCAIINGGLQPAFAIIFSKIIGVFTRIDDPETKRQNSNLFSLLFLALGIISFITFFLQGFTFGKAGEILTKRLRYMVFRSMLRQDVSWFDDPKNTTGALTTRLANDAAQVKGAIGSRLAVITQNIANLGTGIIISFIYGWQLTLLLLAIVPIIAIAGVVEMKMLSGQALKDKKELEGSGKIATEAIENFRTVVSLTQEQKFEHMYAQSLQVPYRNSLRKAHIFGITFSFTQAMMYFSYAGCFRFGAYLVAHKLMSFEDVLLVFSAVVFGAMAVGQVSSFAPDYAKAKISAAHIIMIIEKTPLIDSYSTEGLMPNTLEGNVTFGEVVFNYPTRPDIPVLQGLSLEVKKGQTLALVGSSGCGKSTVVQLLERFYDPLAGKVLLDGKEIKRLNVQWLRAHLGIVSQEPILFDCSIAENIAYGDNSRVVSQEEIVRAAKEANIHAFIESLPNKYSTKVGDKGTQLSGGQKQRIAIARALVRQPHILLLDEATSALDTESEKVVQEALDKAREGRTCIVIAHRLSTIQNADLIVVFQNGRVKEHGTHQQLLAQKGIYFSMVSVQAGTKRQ

SMILES	IC50 [1]	inhibition of transepithelial DRV transport in L-MDR1 monolayers [2]
CC(C)CN(C[C@@H](O)[C@H](Cc1ccccc1)NC(=O)O[C@H]1CO[C@H]2OCC[C@H]21)S(=O)(=O)c1ccc(N)cc1 [DRV, Darunavir]	121 µM	–
Cc1c(O)cccc1C(=O)N[C@@H](CSc1ccccc1)[C@H](O)CN1C[C@H]2CCCC[C@H]2C[C@H]1C(=O)NC(C)(C)C [NFV, Nelfinavir]	–	showed NFV to have a potent inhibitory effect on P-glycoprotein-mediated transport of DRV when compared to RTV and SQV
